Molecules are shown by their SMILES. Where a name gives a salt, the structure may show the parent alone.

The first experiment deals with T1, Amyloid-beta(1-42) oligomer binding to heparin (HS-GAG) (Homo sapiens, UniProt P05067).
T1 construct: Beta-amyloid (1-42) was purchased from rPeptide (Cat. No. A1163); purchased rPeptide A1163
T1 sequence (P05067 672-713): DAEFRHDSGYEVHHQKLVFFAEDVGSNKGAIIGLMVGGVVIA
Nature of the experiment: Inhibition of Amyloid-beta(1-42) oligomer binding to immobilized heparin-BSA (ELISA). More on the design: species or system porcine. The conditions noted are these: 30 μM compound; Abeta(1-42) oligomers, heparin-BSA; read-out: Abeta42/Heparin Activity (% inhibition class). As to the method:
Porcine intestinal mucosa heparin conjugated to Bovine Serum Albumin (Heparin-BSA) was prepared as described (Najjam, S. et al. 1997, Cytokine 12, 1013-1022). Heparin is a sulfated HS-GAG and is commonly used as a HS-GAG in biochemical and binding assays (Lindahl, U. and Kjellen, L. (2013) ibid). Heparin-BSA at 0.01 mg/ml in Phosphate Buffered Saline (PBS; pH 7.4) was added to a 96 well polystyrene ELISA plate (NUNC Cat. No. 449824; 100 μl per well) and incubated Over Night (ON) at 4 degrees Celsius. For negative controls, ELISA plates were coated with BSA instead of Heparin-BSA, using the same procedure. Following the incubation, the plate was washed consecutively, by immersion, with de-ionized water and PBS (pH 7.4). The ELISA plate was then blocked with nonfat milk (2%, 200 μl per well) for 2 hours at Room Temperature (RT) with gentle shaking. Following blocking, the plate was washed with de-ionized water then PBS (pH 7.4). GBAPs were dissolved and diluted in PBS (pH 6.5, supplemented with 0.1% BSA) at desired concentrations, added to the ELISA plates containing immobilized Heparin-BSA (100 μl per well) and incubated for 2 hours at RT with gentle shaking. Following incubation, the plate was washed with de-ionized water and three times with PBS (pH 6.5) plus Tween. Bound GBAP was detected by a monoclonal antibody specific for that GBAP, followed by incubation with secondary antibody conjugated to horseradish peroxidase (HRP). Antibody was diluted in PBS (pH 6.5 supplemented with 1% BSA). Following each incubation with antibody, the plate was washed with de-ionized water and three times with PBS (pH 6.5) wash buffer containing 0.1% Tween. The peroxidase substrate chromogen, TMB (Dako Cat. No. S1599) was added (100 μl per well) to the ELISA plate and incubated at room temperature. After 5 minutes ELISA Stop Solution (hydrochloric acid 1N, sulfuric acid 3N) was added (100 μl per well) to stop the peroxidase catalyzed colorimetric reaction. The Optical Density of the samples was measured at 450 nm using an ELISA plate reader (BioTek Synergy H1). Following color development, the % inhibition compared to control (BSA-coated plates) was determined. IC-50s were calculated using GraphPad Prism software.
The assay was performed as described in Example 43, with the following modifications. Following to coating the plates with Heparin-BSA, plates were washed as described. The compounds were dissolved in DMSO at 10 mM final concentration and further diluted prior to assay. DMSO concentration in the screening well was up to 2%. Individual compounds were co-incubated with Beta-amyloid peptides on plates containing immobilized heparin. Beta-amyloid (1-42) was purchased from rPeptide (Cat. No. A1163) and used to prepare oligomers according to Stine et al., 2003 (J Biol Chem. 278(13):11612-22) as follows. 1,1,1,3,3,3-Hexafluoro-2-propanol- (HFIP; Sigma Cat. No. 105228)-treated Beta amyloid (1-42) was dissolved in dry DMSO (Sigma Cat. No. D2650) to 5 mM concentration. Dissolved Beta amyloid (1-42) was then diluted to 100 μM in ice-cold cell culture medium (phenol red-free Ham's F-12; Caisson Labs, Cat. No. HFL05), followed immediately by vortexing for 30 seconds, and incubating at 4 degrees Celsius for 24 h. Resulting Beta amyloid (1-42) oligomers were centrifuged at 12,000 rpm for 10 min at 4 degree Celsius to remove aggregates. Oligomers were then quickly frozen and kept in aliquots at −80 degrees Celsius. Beta-amyloid (1-40) from rPeptide (Cat No. A1153) was dissolved in DMSO, quickly frozen and kept in aliquots at −80 degrees Celsius. Beta-amyloid (1-42) oligomers or Beta-amyloid (1-40) diluted in PBS (pH 6.5, supplemented with BSA, 0.1%) were added to the ELISA plate (100 μl per well) and incubated for 2 hours at RT with gentle shaking. Following the incubation, the plate was washed with de-ionized water and three times with PBS (pH 6.5) plus Tween. […]
Background: An ELISA detects its analyte on a solid surface through an enzyme-linked reagent.
For `CCN(CC)Cc1cccc(Nc2ccnc3cc(Cl)ccc23)c1` [Compound 42, 7-chloro-N-(3-((diethylamino)methyl)phenyl)quinolin-4-amine], the inhibition at 30 µM is under 30%.

Regarding `CCN1CCN(c2ccc(Nc3ccnc4cc5ccccc5cc34)cc2)CC1` [Compound 39, N-(4-(4-ethylpiperazin-1-yl)phenyl)benzo[g]quinolin-4-amine], the inhibition at 30 µM is under 30%.

On to `CC(=NNc1ccnc2cc(Cl)ccc12)c1ccc(-n2cc[n+](C)c2)nc1` [Compound 23, 1-(5-(1-(2-(7-chloroquinolin-4-yl)hydrazineylidene)ethyl)pyridin-2-yl)-3-methyl-1H-imidazol-3-ium iodide], for which the inhibition at 30 µM is under 30%.

Consider `CN(C)Cc1cc(Nc2ccnc3cc(Cl)ccc23)ccn1` [Compound 45, 7-chloro-N-(2-((dimethylamino)methyl)pyridin-4-yl)quinolin-4-amine], for which the inhibition at 30 µM was under 30%.

As to `COc1cc(Nc2cncc3cc(Cl)ccc23)cnc1-n1cnc(C)c1C` [Compound 33, 7-chloro-N-(6-(4,5-dimethyl-1H-imidazol-1-yl)-5-methoxypyridin-3-yl)isoquinolin-4-amine phosphoric acid salt], the inhibition at 30 µM was under 30%.

`Cc1cn(-c2ccc(Nc3cncc4cc(Cl)ccc34)cn2)c(C)n1` [Compound 37, 7-chloro-N-(6-(2,4-dimethyl-1H-imidazol-1-yl)pyridin-3-yl)isoquinolin-4-amine phosphoric acid salt]: the inhibition at 30 µM was under 30%.

The experiment is the same for the next values; noted with them: Abeta(1-42) oligomers, co-incubation on heparin-BSA plates; read-out: Abeta42/Heparin Activity (IC-50).
Consider `Clc1ccc2c(N/N=C/c3ccc(-n4cccn4)cc3)ccnc2c1` [Compound 3, (E)-4-((E)-(4-(1H-pyrazol-1-yl)benzylidene)hydrazono)-7-chloro-1,4-dihydroquinoline], for which the IC50 is 2.36 µM.

As for `Clc1ccc2c(Nc3ccc(-n4ccnc4)nc3)ncnc2c1` [Compound 41, N-(6-(1H-imidazol-1-yl)pyridin-3-yl)-7-chloroquinazolin-4-amine], the IC50 is 72.4 µM.

As for `Clc1ccc2c(N/N=C/c3ccc(-n4ccnc4)cc3)ccnc2c1` [Compound 38, 4-(2-(4-(1H-imidazol-1-yl)benzylidene)hydrazineyl)-7-chloroquinoline dihydrochloride], the IC50 came to 2.74 µM.

For `Cc1cc(-n2ccnc2)ccc1/C=N/Nc1ccnc2cc(Cl)ccc12` [Compound 1, (E)-4-((E)-(4-(1H-imidazol-1-yl)-2-methylbenzylidene)hydrazono)-7-chloro-1,4-dihydroquinoline], the IC50 was 2.3 µM.

With `Fc1cc(/C=N/Nc2ccnc3cc(Cl)ccc23)ccc1-n1ccnc1` [Compound 35, (E)-7-chloro-4-(2-(3-fluoro-4-(1H-imidazol-1-yl)benzylidene)hydrazineyl)quinoline hydrochloride], the IC50 amounted to 15.4 µM.

For `Cc1ncn(-c2ncc(Nc3ncnc4cc(Cl)ccc34)cc2O)c1C` [Compound 40, 5-((7-chloroquinazolin-4-yl)amino)-2-(4,5-dimethyl-1H-imidazol-1-yl)pyridin-3-ol phosphoric acid salt], the IC50 turned out to be 8.65 µM.

Staying with this experiment, now noted: read-out: Abeta42/Heparin Activity (% inhibition class).
On to `C/C(=N\Nc1ncnc2cc(Cl)ccc12)c1ccc(-n2cc(C)nc2C)nc1` [Compound 27, (E)-7-chloro-4-(2-(1-(6-(2,4-dimethyl-1H-imidazol-1-yl)pyridin-3-yl)ethylidene)hydrazineyl)quinazoline hydrochloride], for which the inhibition at 30 µM was over 30%.

As for `C(=N\Nc1ccc2c3c(cccc13)CC2)/c1ccc(-n2ccnc2)cc1` [Compound 8, (E)-1-(4-((2-(1,2-dihydroacenaphthylen-5-yl)hydrazineylidene)methyl)phenyl)-1H-imidazole], the inhibition at 30 µM was under 30%.

On to `CC(=NNc1ccnc2cc(Cl)ccc12)c1ccc(-n2cnc(C)c2C)nc1` [Compound 22, 7-chloro-4-(2-(1-(6-(4,5-dimethyl-1H-imidazol-1-yl)pyridin-3-yl)ethylidene)hydrazineyl)quinoline], for which the inhibition at 30 µM is over 30%.

Regarding `Fc1ccc2c(N/N=C/c3ccc(-n4ccnc4)cc3)ccnc2c1` [Compound 5, (E)-4-(2-(4-(1H-imidazol-1-yl)benzylidene)hydrazinyl)-7-fluoroquinoline], the inhibition at 30 µM was under 30%.

For `C/C(=N\Nc1ncnc2ccccc12)c1ccc(-n2cc(C)nc2C)nc1` [Compound 19, (E)-4-(2-(1-(6-(2,4-dimethyl-1H-imidazol-1-yl)pyridin-3-yl)ethylidene)hydrazineyl)quinazoline], the inhibition at 30 µM was under 30%.

For the molecule `CN1CCN(c2cc(Nc3ccnc4cc(Cl)ccc34)ccn2)CC1` [Compound 20, 7-chloro-N-(2-(4-methylpiperazin-1-yl)pyridin-4-yl)quinolin-4-amine], the inhibition at 30 µM was under 30%.

With `COc1cc2nccc(NN=Cc3ccc(-n4ccnc4)c(C)c3)c2cc1OC` [Compound 11, 4-(2-(4-(1H-imidazol-1-yl)-3-methylbenzylidene)hydrazineyl)-6,7-dimethoxyquinoline hydrochloride], the inhibition at 30 µM was under 30%.

Values taken from patent US20240398783A1, “Compounds and Pharmaceutical Compositions Comprising Inhibitors of Amyloid Peptide Interactions with Glycosaminoglycans, Methods of Treatment and Use Thereof” (Gismo Therapeutics, Inc., priority 2021, published 2024).
